Measurements from US20010047524A1, “Methods and tissue culture media for inducing somatic embryogenesis, agrobacterium-mediated transformation and efficient regeneration of cacao plants” (priority 1997, published 2001).

System: staminode and petal base explants of cacao genotype Sca-6
Experiment: Somatic embryogenesis from cacao floral explants cultured on PCG medium containing various concentrations of TDZ
Format: cell-based, Theobroma cacao L.
Experimental: Primary callus growth (PCG) medium was prepared by combining the following solutions and compounds (per liter): 100 ml each DKW macro solutions A and B, 10 ml DKW micro solution, 1 ml DKW vitamin solution, 20 g glucose, 250 mg glutamine, 100 mg myo-inositol, 100 ml 2,4-D solution, 10 ml TDZ solution, and 2.0 g phytagel, and the pH was adjusted to 5.8.
The staminodes and petal base explants from the four flower buds were then transferred into a Petri dish containing 30 ml of PCG medium. Any fused staminodes and petal base explants were separated and explants were distributed evenly across the medium. The Petri dishes were sealed with a double layer of parafilm and cultures were maintained in the dark at 25±2° C. for 14 days (FIG. 2a). Growth reduction, senescence, and tissue browning may occur with subculture intervals longer than 14 days.
The staminode and petal base explants were then transferred from a PCG medium to a Petri dish containing 30 ml of SCG medium. The dishes were sealed and the cultures were maintained in the dark for 14 days at 25±2° C. Globular calli were produced on the entire tissue explant at the end of this culture period (FIG. 2b).
Staminode and petal base explants and calli derived in the callus induction step were transferred to Petri dishes containing 30 ml of ED medium. Explants were cultured in the dark for 14 days at 25±2° C. Explants were then subcultured onto the fresh ED medium and maintained in the dark for another 14 days. By that time, numerous somatic embryos at globular and heart-shaped stages of development were visible on the embryogenic calli (FIG. 2c and d).
The effect of TDZ concentration on somatic embryogenesis from staminode explants of five cacao genotypes was determined and is shown in FIG. 3. Staminodes were cultured on PCG medium containing various concentrations of TDZ. […] Data were collected two months after culture initiation. Each treatment contained 20 staminodes per plate with three replicate plates. The values shown in FIG. 3 represent the average percentage rates of embryo-producing staminodes from three repeated experiments. Up to 100% of cultured staminode and over 60% of petal base explants from cacao genotype Sca-6 produced somatic embryos (FIG. 3).
The effect of TDZ concentration on somatic embryo production from staminode explants of five cacao genotypes was determined and is shown in FIG. 4. Staminodes were cultured on PCG medium containing various concentrations of TDZ. […] Data were collected two months after culture initiation. Each treatment contained 20 staminodes per plate with three replica plates. Values represent the average number of somatic embryos per responsive staminode from three repeated experiments. […]

[1] = two months after culture initiation, FIG. 4

In the case of `O=C(Nc1ccccc1)Nc1cnns1` [TDZ, thidiazuron], the “petal base explants that produced somatic embryos” value (FIG. 3) is reported as “over 60%”, the “cultured staminode explants that produced somatic embryos” value (PCG medium with various TDZ concentrations, then SCG and ED medium, two months after culture initiation, FIG. 3) is reported as “Up to 100%” and the “average number of primary somatic embryos per responsive staminode” value [1] is reported as “about 46”. The “primary somatic embryos produced by a single staminode explant (maximum)” value [1] was “up to 140”.
